Data as given in patent EP0847397B1, “WATER-SOLUBLE C-RING ANALOGUES OF 20 (S)-CAMPTOTHECIN” (DR. REDDY'S RESEARCH FOUNDATION, priority 1996, dated 1997).

What was measured:
[1] = test system: U 251; test: NCI in vitro 60 human tumor cell line assay; type: cell-based; conditions: U-251, 48 h, read-out: Total Growth Inhibition (TGI)
Description: (§1) Each test compound was screened against a battery of 60 human cell lines obtained from eight organs. In a typical procedure, the cell suspensions that were diluted according to the particular cell type and the expected target cell density (5000-40,000 cells per well based on cell growth characteristics) were added into 96-well microtiter plates. Inoculates were allowed a preincubation period of 24h at 37°C. for stabilization. Dilutions at twice the intended test concentrations were added at time zero in 100-µl aliquots to microtiter plate wells. Usually test compounds were evaluated at five 10-fold dilutions. The highest well concentration used in the test is 10^-4M. The cells are then incubated in the presence of drug (the test compound) for further 48h in 5% CO2 atmosphere and 100% humidity. At the end of this time, the adherent cells are fixed to the plate by means of trichloroacetic acid, and after a number of washes, the cell layer is treated with the protein stain Sulforhodamine B. The optical density which is proportional to protein mass, is then read by automated spectrophotometric plate readers at a wavelength of 515 nm. Readings are transferred to a microcomputer and final reports are generated using especially developed software.

[2] = test system: H 322M; test: NCI in vitro 60 human tumor cell line assay; type: cell-based; conditions: NCI-H322M, 48 h, read-out: Total Growth Inhibition (TGI)
Description: as §1

[3] = test system: UO 31; test: NCI in vitro 60 human tumor cell line assay; type: cell-based; conditions: UO-31, 48 h, read-out: Total Growth Inhibition (TGI)
Description: as §1

[4] = test system: OVCAR 8; test: NCI in vitro 60 human tumor cell line assay; type: cell-based; conditions: OVCAR-8, 48 h, read-out: Total Growth Inhibition (TGI)
Description: (§2) Each test compound was screened against a battery of 60 human cell lines obtained from eight organs. In a typical procedure, the cell suspensions that were diluted according to the particular cell type and the expected target cell density (5000-40,000 cells per well based on cell growth characteristics) were added into 96-well microtiter plates. Inoculates were allowed a preincubation period of 24h at 37°C. for stabilization. Dilutions at twice the intended test concentrations were added at time zero in 100-µl aliquots to microtiter plate wells. Usually test compounds were evaluated at five 10-fold dilutions. The highest well concentration used in the test is 10^-4M. The cells are then incubated in the presence of drug (the test compound) for further 48h in 5% CO2 atmosphere and 100% humidity. At the end of this time, the adherent cells are fixed to the plate by means of trichloroacetic acid, and after a number of washes, the cell layer is treated with the protein stain Sulforhodamine B. The optical density which is proportional to protein mass, is then read by automated spectrophotometric plate readers at a wavelength of 515 nm.

[5] = test system: SF 268; test: NCI in vitro 60 human tumor cell line assay; type: cell-based; conditions: SF-268, 48 h, read-out: Total Growth Inhibition (TGI)
Description: as §2

[6] = Lactone stability in whole blood (HPLC); type: in vitro ADME; conditions: human, whole blood, 1 μM, 37°C, lactone peak area relative to zero time (100%); read-out: Lactone Stability in Whole Blood (after 3 hours)
Description: 2. Lactone Stability in whole blood:
2 ml of blood from a healthy volunteer was collected in a tube containing 40 µl of heparin (572 IU) to prevent coagulation, 4 mM and 40 µM working solutions of the drug in DMSO were prepared and added to aliquots of whole blood to give final concentration of 100 µM and 1 µM respectively. The drug is incubated in whole blood at 37°C and 20 µl samples are collected into 180 µl of chilled methanol (-30°C) at different time intervals (0, 1, 2 & 3 hrs). Vortex and then centrifuge at 11000 rpm for 3 min in a microcentrifuge at room temperature. Dilute 100 µl of the supernatant with water to 300-500 µl depending upon the signal response (UV for 100 µM concentration and fluoroscence for 1 µM concentration) of the compound. 200 µl of the diluted sample is injected on to the HPLC column previously equilibrated with the mobile phase. The area under peak corrsponding to lactone forms is measured. Zero time peak area is taken as 100%, and the proportion of lactone peak area at different time points is calculated to determine the equilibrium lactone stability as obtained by consistent lactone proportion over two successive time points. (Biochemistry, 1994; 33:10325-10336 and J. Pharm. Sci., 1995; 84:518-519).

[7] = test system: EKVX; test: NCI in vitro 60 human tumor cell line assay; type: cell-based; conditions: 48 h, read-out: Total Growth Inhibition (TGI)
Description: as §1

[8] = test system: T 47D; test: NCI in vitro 60 human tumor cell line assay; type: cell-based; conditions: T47D, 48 h, read-out: Total Growth Inhibition (TGI)
Description: as §1

[9] = test system: COLO 205; test: NCI in vitro 60 human tumor cell line assay; type: cell-based; conditions: COLO 205, 48 h, read-out: Total Growth Inhibition (TGI)
Description: as §1

[10] = test system: HOP 62; test: NCI in vitro 60 human tumor cell line assay; type: cell-based; conditions: HOP-62, 48 h, read-out: Total Growth Inhibition (TGI)
[11] = test system: H 226; test: NCI in vitro 60 human tumor cell line assay; type: cell-based; conditions: NCI-H226, 48 h, read-out: Total Growth Inhibition (TGI)
Description: as §1

[12] = test system: MDA-MB-435; test: NCI in vitro 60 human tumor cell line assay; type: cell-based; conditions: MDA-MB-435, 48 h, read-out: Total Growth Inhibition (TGI)
[13] = test system: KM 12; test: NCI in vitro 60 human tumor cell line assay; type: cell-based; conditions: KM12, 48 h, read-out: Total Growth Inhibition (TGI)
Description: as §1

[14] = test system: MDA-N; test: NCI in vitro 60 human tumor cell line assay; type: cell-based; conditions: BREAST, 48h, read-out: Total Growth Inhibition (TGI)
Description: as §2

[15] = test system: BT 549; test: NCI in vitro 60 human tumor cell line assay; type: cell-based; conditions: BT-549, 48 h, read-out: Total Growth Inhibition (TGI)
Description: as §1

[16] = test system: H 23; test: NCI in vitro 60 human tumor cell line assay; type: cell-based; conditions: NCI-H23, 48 h, read-out: Total Growth Inhibition (TGI)
Description: as §1

[17] = test system: NCI's 60 human tumor cell line assay; test: cells; type: cell-based; conditions: 60 cell, 48 h, read-out: IC50 (mean GI50 against NCI's 60 human tumor cell line assay)
[18] = test system: MCF 7/ ADR; test: NCI in vitro 60 human tumor cell line assay; type: cell-based; conditions: Homo sapiens, NCI/ADR-RES, 48 h, read-out: Total Growth Inhibition (TGI)
Description: as §1

[19] = test system: HOP 92; test: NCI in vitro 60 human tumor cell line assay; type: cell-based; conditions: HOP-92, 48 h, read-out: Total Growth Inhibition (TGI)
[20] = test system: HCT 116; test: NCI in vitro 60 human tumor cell line assay; type: cell-based; conditions: HCT-116, 48 h, read-out: Total Growth Inhibition (TGI)
[21] = test system: H 522; test: NCI in vitro 60 human tumor cell line assay; type: cell-based; conditions: NCI-H522, 48 h, read-out: Total Growth Inhibition (TGI)
Description: as §1

CC[C@@]1(O)C(=O)OCc2c1cc1n(c2=O)C(OCCO)c2cc3ccccc3nc2-1 (stereo partly drawn) [Example 26, 5-(2'-Hydroxyethoxy)camptothecin]
IC (TGI) [1]: 7.58 µM
IC (TGI) [2]: 31.6 µM
IC (TGI) [3]: 3.89 µM
IC (TGI) [4]: 13.4 µM
IC (TGI) [5]: 30.9 µM
remaining at 3 h, 1 µM [6]: 5.3%
IC (TGI) [7]: 63 µM

CC[C@@]1(O)C(=O)OCc2c1cc1n(c2=O)C(OCC(F)(F)F)c2cc3cc(O)ccc3nc2-1 (stereo partly drawn) [Example 27, 10-Hydroxy-5-trifluoroethoxycamptothecin]
IC (TGI) [8]: 0.81 µM
IC (TGI) [9]: 19.5 µM
IC (TGI) [10]: 4.95 µM
IC (TGI) [11]: 4.75 µM
IC (TGI) [12]: 9.62 µM
IC (TGI) [13]: 10.6 µM
IC (TGI) [14]: 11 µM
IC (TGI) [15]: 11.4 µM
IC (TGI) [16]: 0.91 µM
mean GI50 [17]: 0.38 µM
IC (TGI) [18]: 1.25 µM
IC (TGI) [19]: 4.88 µM
IC (TGI) [20]: 4.06 µM
IC (TGI) [21]: 7.66 µM
